In brackets after ≈: the same amount, converted by molar mass. Where two headings read alike, the source gives them in different places.
Experiments:
HeLa cells = test: Cytotoxic activity in vitro, colony inhibition test after 24 hours exposure; assay type: cell-based; details: Homo sapiens
Protocol: (§1) Compound IB has been tested in comparison with daunorubicin (DNR) against HeLa and P388 cells in vitro (Table 1).
(§2) Cytotoxic activity of IB in comparison
^+ COLONY INHIBITION TEST AFTER 24 HOURS EXPOSURE TO THE DRUGS.

P388 cells = test: Cytotoxic activity in vitro, cell counting after 48 hours exposure; assay type: cell-based; details: Mus musculus
Protocol: as §1, §2
^++ CYTOTOXICITY EVALUATED AFTER 48 HOURS EXPOSURE TO THE DRUGS BY
CELL COUNTING TECHNIQUE.

[1] = In vivo effect against disseminated Gross leukemia in C3H mice; details: mouse, in vivo; iv, mice with disseminated Gross leukemia; read-out: maxima tolerated dose (MxTD)
Protocol: (§3) EFFECT AGAINST GROSS LEUKEMIA^(A)
(§4) ^(A) EXPERIMENTS WERE PERFORMED IN C3H MICE, INOCULATED WITH 2 .times
(§5) 10^6 LEUKEMIA CELLS I.V.
(§6) ^(B) TREATMENT I.V. ON DAY 1 AFTER TUMOR INOCULUM.
(§7) ^(C) MEDIAN SURVIVAL TIME OF TREATED MICE/MEDIAN SURVIVAL TIME OF
(§8) ^(D) EVALUATED ON THE BASIS OF AUTOPSY FINDINGS.

[2] = tested on: disseminated Gross leukemia; test: as above; details: for TOXIC DEATHS: evaluated on the basis of autopsy findings; for T/C %: median survival time treated/controls × 100
Protocol: as §3, §4, §5, §6, §7, §8

| Compound | IC50 (HeLa cells; 24 h, read-out: ID50) [ng/mL] | IC50 (P388 cells; P388, 48 h, read-out: ID50) [ng/mL] | MTD [1] [mg/kg] | TOXIC DEATHS ([2]; 10 mg/kg i.v. on day 1) | T/C % ([2]; 10 mg/kg i.v. on day 1 after tumor inoculum) [%] | TOXIC DEATHS ([2]; 15 mg/kg i.v. on day 1) | T/C % ([2]; 15 mg/kg i.v. on day 1 after tumor inoculum) [%] | TOXIC DEATHS ([2]; 22.5 mg/kg i.v. on day 1) | T/C % ([2]; 22.5 mg/kg i.v. on day 1 after tumor inoculum) [%] | IC50 (HeLa cells; colony inhibition test after 24 hours exposure, read-out: ID50 (the source's name)) [ng/mL] | IC50 (P388 cells; P388, cell counting after 48 hours exposure, read-out: ID50 (the source's name)) [ng/mL] | TOXIC DEATHS ([2]; 19 mg/kg i.v. on day 1) | T/C % ([2]; 19 mg/kg i.v. on day 1 after tumor inoculum) [%] | TOXIC DEATHS ([2]; 24.7 mg/kg i.v. on day 1) | T/C % ([2]; 24.7 mg/kg i.v. on day 1 after tumor inoculum) [%] | TOXIC DEATHS ([2]; 32.11 mg/kg i.v. on day 1) | T/C % ([2]; 32.11 mg/kg i.v. on day 1 after tumor inoculum) [%] | potency in vivo compared with DNR ([2]; administered iv) | activity in vivo compared with DNR ([2]; iv, at the maxima tolerated dose (32.11 mg/Kg; DNR MxTD=15 mg/Kg)) |
| --- | --- | --- | --- | --- | --- | --- | --- | --- | --- | --- | --- | --- | --- | --- | --- | --- | --- | --- | --- |
| COc1cccc2c1C(=O)c1c(O)c3c(c(O)c1C2=O)C[C@@](O)(C(C)=O)C[C@@H]3O[C@H]1C[C@H](N)[C@H](O)[C@H](C)O1 [DNR, daunorubicin, reference compound] | 10.5 (≈ 0.0199 µM) | 8.4 (≈ 0.0159 µM) | 15 | 0/10 | 150 | 0/10 | 183 | 2/10 | 217 | – | – | – | – | – | – | – | – | – | – |
| COc1cccc2c1C(=O)c1c(O)c3c(c(O)c1C2=O)C[C@@](O)(C(=O)CO)C[C@@H]3O[C@H]1C[C@@H](CN)[C@@H](O)[C@H](C)O1 [IB, 3'-desamino-3'-aminomethyl-3',4'-epi-doxorubicin] | – | – | 32.1 | – | – | – | – | – | – | 6.4 (≈ 0.0115 µM) | 10 (≈ 0.0179 µM) | 0/10 | 167 | 0/10 | 183 | 1/10 | 200 | less potent than DNR | more active than DNR |

From patent US4839346A, “Antitumor anthracycline glycosides, intermediates thereof, and composition and use thereof” (priority 1986, dated 1989)
